Measurements from patent publication US20250327029A1, “PROCESS FOR THE OBTENTION OF INVARIANT NATURAL KILLER T CELLS” (Université de Lorraine, priority 2022, published 2025).

Tested on: CD4^− iNKT cells
Test: Expansion of iNKT cells from PBMC cultured with alpha-GalCer and a cytokine (IL-15 or IL-2)
Type: cell-based, human
Description: The expansion factor of iNKT cells is more preferably comprised between 100 and 10 000. The “expansion factor” corresponds to the number of iNKT cells obtained at day 14 of expansion divided by the number of iNKT cells put in culture at day 0. The number of cells is determined by routinely used techniques by the skilled person (cell couting and flow cytometry staining to determine the percentage of iNKT cells among total PBMCs).
PBMC obtained by centrifugation of fresh whole blood on density gradient were culture at the concentration of 5.10^5 cells/mL in RPMI 1640 advanced medium (ref: 11530446, Gibco®), with 5% SVF v/v, 4 mM glutamine, 100 ng/mL alpha-galactoside-ceramide (KRN-7000, Funakoshi). Cultures were performed in a cell culture bag in a normoxia incubator at 37° C. and 5% CO2.
On day 1 of culture, 10 ng/mL of IL-15 were added.
On day 7 of culture, 50% of the medium was changed and 10 ng/mL of IL-15 were introduced.
On day 10 of the culture, 50% of the medium was changed and 10 ng/mL of IL-15 were introduced.
On day 14 of the culture, the obtained iNKT cells were sorted by performing a magnetic CD4^+ cell isolation (CD4 MicroBeads kit commercialized by Miltenyi Biotec Inc.), retrieving the negative fraction, performing a magnetic iNKT^+ isolation on said fraction (Anti-iNKT MicroBeads kit commercialized by Miltenyi Biotec Inc.) and retrieving the positive fraction corresponding to the isolated CD4^− iNKT cell population.

## IL-15: human cytokine that stimulates the proliferation of T-lymphocytes; Uniprot P40933
D14 of culture, n=14
  mean % CD4^− iNKT cells±SEM: 60.6±5.23%
Cytokine present during expansion phase, n=17, cells at day 14 / cells at day 0
  mean expansion factor of CD4^− iNKT cells±SEM: 652±128
End of 14-day culture, healthy donor PBMC
  CD4^− iNKT cells among the expanded iNKT cells: 61%
Healthy donor PBMC, 0.82% iNKT at D0
  percentage of iNKT cells at the end of the 14-day culture (% among total T lymphocytes): 81.5%
